What all share (test): NCI-60 cell line screen, 48 h
Test [1] concerns IGROV-1.
The test system of test [2] is SNB-75.
Test [3] deals with MDA-N.
The subject of test [4] is SK-OV-3.
Test [5] concerns SW-620.
Test [6] relates to SK-MEL-5.
Test [7] deals with HOP-62.
Test [8] concerns MDA-MB-231.
The test system of test [9] is A549.
In test [10] the test system is UACC-257.
Test [11] deals with NCI-H522.
The subject of test [12] is HL-60.
Test [13] relates to SF-268.
Test [14] deals with SK-MEL-2.
The subject of test [15] is COLO 205.
Test [16] relates to PC-3.
For test [17], the system named is T47D.
For test [18], the system named is TK-10.
The subject of test [19] is RPMI-8226.
Test [20] concerns MDA-MB-435.

Each structure is given as a SMILES string.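 Each compound was tested at five concentrations against cells in 96-well plates for 48 hours. GI50: concentration for 50% inhibition of growth.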 Calls of active or inactive are those of the source. No stated cut-off is given here; in the data, active = GI50 up to about 1.1 µM and inactive = higher.

Consider `Cn1c(=O)c2nc(CCCCc3nc4ccccc4[nH]3)[nH]c2n(C)c1=O`, for which the GI50 was > 100 µM (inactive) in test [1]; 30.1 µM (inactive) in test [2]; > 100 µM (inactive) in test [3]; > 100 µM (inactive) in [4]; > 100 µM (inactive) in test [5]; > 100 µM (inactive) in [6]. Besides, the GI50 in [7], in [8], in test [9], in test [10], in test [11] and in [12] was > 100 µM (inactive) each time. Further, the GI50 in [13], in test [14], in test [15], in test [16], in test [17] and in [18] was > 100 µM (inactive) throughout. The GI50 in [19] and in test [20] was > 100 µM (inactive) in each case.

Regarding `CCSc1s/c(=N/c2ccc(/N=c3\sc(C)c(SC)s3)cc2)sc1-c1ccc(C)cc1`, the GI50 in test [1] was > 100 µM (inactive); in [2], 32 µM (inactive); in test [3] it was > 100 µM (inactive); in [4], > 100 µM (inactive); in test [5], > 100 µM (inactive); in test [6], > 100 µM (inactive). The GI50 in [7], in test [8], in test [9], in test [10], in test [11] and in test [12] was > 100 µM (inactive) in each case. Also, the GI50 in test [13], in test [14], in [15], in test [16], in [17] and in test [18] was > 100 µM (inactive) each time. The GI50 in test [19] and in test [20] was > 100 µM (inactive) throughout.

For the molecule `O=C1CSC(/C=C/c2ccccc2)N1c1ccc(-n2c(-c3ccccc3)nc3ccccc3c2=O)cc1` (centres undefined), the GI50 is 74.3 µM (inactive) in test [1]; 22.6 µM (inactive) in [2]; > 100 µM (inactive) in [3]; 19.3 µM (inactive) in test [4]; > 10 µM (inactive) in [5]; 68.9 µM (inactive) in test [6]. The GI50 in [7] was 42.7 µM (inactive); in test [8], > 100 µM (inactive); in test [9], > 100 µM (inactive); in [10], > 100 µM (inactive); in [11], 50.6 µM (inactive); in test [12], > 100 µM (inactive). Moreover, the GI50 in test [13] is 95.5 µM (inactive); in test [14], > 100 µM (inactive); in [15], > 100 µM (inactive); in [16] it was 61.2 µM (inactive); in [17], 17 µM (inactive); in [18] it was > 100 µM (inactive). For the same molecule, the GI50 in test [19] and in test [20] was > 100 µM (inactive) each time.

As to `O=c1[nH]nc(Cc2ccccc2)n1/N=C/c1c[nH]c2ccccc12`, the GI50 in test [1] was > 100 µM (inactive); in test [2] it was 13.3 µM (inactive); in test [3], 29.8 µM (inactive); in test [4], 96.2 µM (inactive); in test [5], > 100 µM (inactive); in [6], > 100 µM (inactive). For the same molecule, the GI50 in [7] was 60.7 µM (inactive); in test [8], 59 µM (inactive); in [9] it was 66.1 µM (inactive); in [10], 96.2 µM (inactive); in test [11] it was 22.9 µM (inactive); in [12], > 100 µM (inactive). Further, the GI50 in test [13] was 21.9 µM (inactive); in [14], > 100 µM (inactive); in test [15] it was > 100 µM (inactive); in test [16] it was 92 µM (inactive); in test [17], > 100 µM (inactive); in test [18] it was 35.3 µM (inactive). The values for the GI50 in test [19] and in test [20] were > 100 µM (inactive) and 81.7 µM (inactive), respectively.

For `O=C1C(C(O)(C(F)(F)Cl)C(F)(F)Cl)CCC1C(O)(C(F)(F)Cl)C(F)(F)Cl` (centres undefined), the GI50 in test [1] is 4.98 µM (inactive); in test [2] it was 3.7 µM (inactive); in test [3] it was > 10 µM (inactive); in test [4], 5.51 µM (inactive); in test [5], 4.15 µM (inactive); in test [6], 5.94 µM (inactive). The GI50 in test [7] is 5.57 µM (inactive); in test [8] it was 3.34 µM (inactive); in test [9] it was 9.57 µM (inactive); in test [10], 2.79 µM (inactive); in test [11], 4.45 µM (inactive); in test [12] it was > 10 µM (inactive). Also, the GI50 in test [13] was 3.57 µM (inactive); in test [14], 2.3 µM (inactive); in test [15], 4.17 µM (inactive); in test [16], 4.53 µM (inactive); in test [17], 4.44 µM (inactive); in test [18] it was 5.52 µM (inactive). Besides, the GI50 in test [19] and in test [20] was > 10 µM (inactive) each time.

In the case of `O=C(Nc1ccc2ncccc2c1)c1cc2c(cc1Cl)Sc1nccn1S2(=O)=O`, the GI50 in test [1] is 12.6 µM (inactive); in test [2], 15.3 µM (inactive); in test [3], 5.56 µM (inactive); in test [4], 33.3 µM (inactive); in [5] it was 16 µM (inactive); in test [6], 15.3 µM (inactive). In addition, the GI50 in [7] is 16.4 µM (inactive); in [8], 20.4 µM (inactive); in test [9] it was 17.5 µM (inactive); in test [10], 20.1 µM (inactive); in test [11], 8.97 µM (inactive); in test [12], 9.27 µM (inactive). For the same molecule, the GI50 in test [13] was 18.1 µM (inactive); in test [14], 17.3 µM (inactive); in test [15], 18.7 µM (inactive); in test [16], 33.6 µM (inactive); in [17], 14.7 µM (inactive); in test [18], 20.4 µM (inactive). Further, the GI50 is 6.85 µM (inactive) in test [19] and 4 µM (inactive) in test [20].

In the case of `CC(=O)O[C@H]1C(=O)[C@@]2(C)[C@H]([C@H](OC(=O)c3ccccc3)[C@]3(O)C[C@H](OC(=O)[C@H](O)[C@@H](NC(=O)c4ccccc4)c4cccc(N(C)C)c4)C(C)=C1C3(C)C)[C@]1(OC(C)=O)CO[C@@H]1C[C@@H]2O`, the GI50 in test [1] was 0.0537 µM (active); in test [2], 1.01 µM (active); in [3] it was 0.00766 µM (active); in test [4] it was 0.105 µM (active); in [5], 0.0409 µM (active); in test [6], 0.0417 µM (active). Moreover, the GI50 in test [7] is 0.256 µM (active); in test [8], 0.542 µM (active); in test [9], 0.314 µM (active); in [10], 0.714 µM (active); in test [11], 0.0533 µM (active); in test [12] it was 0.0122 µM (active). The GI50 in [13] was 0.337 µM (active); in test [14] it was 0.0301 µM (active); in test [15] it was 0.0432 µM (active); in test [16], 0.209 µM (active); in [17] it was 0.401 µM (active); in [18] it was 1.41 µM (inactive). The results for the GI50 in [19] and in [20] were 0.00968 µM (active) and 0.00893 µM (active), respectively.

Consider `CC1(C)OCC(C2OC(=O)C(OCc3ccccc3)=C2OCc2ccccc2)O1` (centres undefined), for which the GI50 was 64.3 µM (inactive) in test [1]; 49.9 µM (inactive) in test [2]; 38 µM (inactive) in test [3]; 52.6 µM (inactive) in test [4]; 51.8 µM (inactive) in [5]; 17.2 µM (inactive) in [6]. The GI50 was 81.8 µM (inactive) in test [7]; 24.6 µM (inactive) in test [8]; 32.9 µM (inactive) in [9]; 29.9 µM (inactive) in test [10]; 23.3 µM (inactive) in test [11]; 22.9 µM (inactive) in test [12]. Moreover, the GI50 in test [13] is 83.2 µM (inactive); in [14], 23.1 µM (inactive); in test [15], 22.2 µM (inactive); in test [16] it was 21 µM (inactive); in test [17] it was 28.8 µM (inactive); in test [18] it was 44.3 µM (inactive). Also, the GI50 is 24 µM (inactive) in test [19] and 26.9 µM (inactive) in test [20].

Regarding `Cn1c2c(c3ccccc31)CCN1C(=O)CCC21` (centres undefined), the GI50 in [1], in test [2], in test [3], in test [4], in [5] and in test [6] was > 10 µM (inactive) throughout. The GI50 in test [7], in test [8], in test [10], in [11], in test [12] and in test [13] was > 10 µM (inactive) each time. The GI50 in test [14], in [15], in test [16], in test [17], in [18] and in test [19] was > 10 µM (inactive) throughout. Further, the GI50 in test [20] is > 10 µM (inactive).

Take `Nc1cc(F)ccc1CC(=O)O`: the GI50 in test [1], in test [2], in test [3], in [4], in test [5] and in test [6] was > 100 µM (inactive) throughout. In addition, the GI50 in test [7], in test [8], in [9], in [10], in [11] and in test [12] was > 100 µM (inactive) in each case. In addition, the GI50 in [13], in [14], in test [15], in test [16], in test [17] and in [18] was > 100 µM (inactive) throughout. Besides, the GI50 in test [19] and in test [20] was > 100 µM (inactive) each time.

(Values after ChEMBL document CHEMBL1201862, “PubChem BioAssay data set” (2004).)
